{"source": "paper PMC2725291", "about": "“Genetic and Molecular Basis of Individual Differences in Human Umami Taste Perception” (PLoS ONE, 2009)", "key": {"254 Japanese subjects": {"system": "254 Japanese subjects", "design": "method as in PMID 11839608", "settings": "humans; cited from earlier work"}, "TAS1R1/TAS1R3 variants": {"system": "TAS1R1/TAS1R3 variants", "assay": "Ca2+ imaging (FlexStation II), comparison across receptor variants (AR, TR, AC, TC)", "format": "cell-based, human", "settings": "MSG alone", "description": "Intronless human TAS1Rs and Gαl6 expression constructs were generated in the pEF-DEST51 Gateway vector (Invitrogen) by genomic DNA-based methods. To subclone each gene into the vector, a Kozak cassette was introduced at the 5′ end before the start codon. Gαl6 chimeras were generated by PCR with mutagenic primers. The carboxyl-terminal tail of Gαl6, five-residue (EINLL) was replaced by its counterpart from Gαi3 (ECGLY; Gα16-i3), Gαgust (DCGLF; Gα16-gust), and Gα16-gust44 was generated as described. The integrity of all DNA constructs was confirmed by DNA sequencing. Point mutations in TAS1Rs were made using the same overlapping PCR strategy with mutagenic primers.\nHEK293 cells were cultured at 37°C under a humidified atmosphere containing 5% CO2 in Dulbecco's modified Eagle's medium supplemented with 10% fetal bovine serum. To obtain reproducible Ca^2+ responses, cells were split every 2 days before cells become confluent. Cells were discarded after 2 months of passages and new cells were prepared from frozen-stock. For calcium imaging experiments, cells were seeded onto a 35 mm recording chamber or poly-D-lysine coated 96-well black-wall, clear-bottom recording plates. After 24 hrs at 37°C, confluent cells (60∼70%) were washed in OptiMEM medium supplemented with GlutaMAX-I (invitrogen) and plasmid DNAs were transiently cotransfected into HEK293 cells using Lipofectamine2000 regent (invitrogen) (2.0 µl per 1.0 µg DNA). […]\nStudent's t-test was used for detection of differences in the mean recognition thresholds between males and females. […] The mean values (the center±S.E. of gaussian curve on X-axis) in the distribution of recognition thresholds defined by TAS1R1/TAS1R3 haplotypes (TAS1R1-372A/TAS1R3-757R homozygotes, TAS1R1-372T/TAS1R3-757R homozygotes, homo- and heterozygotes containing TAS1R3-757C) were calculated using gauss fit function of Origin 5.0 (OriginLab Corp). For Ca^2+ imaging analysis, data were normalized to response to 10 µM ISO, and mean values (±S.E.) were calculated from 10∼18 independent analyses."}, "[1]": {"system": "Mock-transfected HEK cells", "assay": "Ca2+ imaging in mock-transfected HEK cells", "format": "cell-based, human", "settings": "without the three genes, Gα16-i3 alone, Gα16-i3/TAS1R1 without TAS1R3, Gα16-i3/TAS1R3 without TAS1R1", "procedure": "HEK293 cells were cultured at 37°C under a humidified atmosphere containing 5% CO2 in Dulbecco's modified Eagle's medium supplemented with 10% fetal bovine serum. To obtain reproducible Ca^2+ responses, cells were split every 2 days before cells become confluent. Cells were discarded after 2 months of passages and new cells were prepared from frozen-stock. For calcium imaging experiments, cells were seeded onto a 35 mm recording chamber or poly-D-lysine coated 96-well black-wall, clear-bottom recording plates. […] The transfection efficiencies were estimated by visualizing DsRed fluorescence (data not shown) or by immunocytochemistry of TAS1R3, and were typically 50∼55% (Figure S4). […]\nTwo Ca^2+ imaging systems were used. […] Taste solutions diluted in HBSS were applied sequentially to the cells for 30 s with a peristaltic pump at a flow rate of 1.5 ml/min, and fluorescence images were obtained using a S Fluor ×20/0.75 objective lens (Nikon) via a cooled-CCD camera (C6790, Hamamatsu Photonics) fitted to a TE300 microscope (Nikon). Acquisition and analysis of these fluorescence images used AquaCosmos software (v. 1.3, Hamamatsu Photonics). […] Responses were measured from 30 individual responding cells. […]"}}}
{"smiles": "N[C@@H](CCC(=O)O)C(=O)[O-].[Na+]", "note": "[MSG, monosodium glutamate]", "values": [{"measurement": "difference of taste thresholds between taster and hypotaster groups", "setting": "254 Japanese subjects", "value": "about 5 fold"}, {"measurement": "more sensitive responses (EC50 comparison) of 372T/757R (TR) compared to the other variants (AR, AC and TC)", "setting": "TAS1R1/TAS1R3 variants", "value": "about 1.5 fold"}, {"measurement": "EC50", "setting": "TAS1R1/TAS1R3 variants; the other variants (AR, AC and TC)", "value": "27.6 to 32.2", "unit": "mM"}, {"measurement": "Ca2+ response of mock-transfected HEK cells", "setting": "[1]", "value": "did not respond"}]}
